Measured values published in ChEMBL document CHEMBL1148777, “Toward the development of prophylactic and therapeutic human papillomavirus type-16 lipopeptide vaccines” (J Med Chem, 2007).
The source made the active and inactive calls. The rule behind the calls is not given here. *1 amine or outer side, *2 acyl side, *3 side chain or, on linkers, in order; H or OH if unused. Where a SMILES comes first, the peptide text is derived from it. [ ]: non-standard residue; d: D form. The star is where a group is joined. ξ: configuration not given here. X3 = CC(=O)OC[C@@H]1O[C@H](N*)[C@H](OC(C)=O)[C@H](OC(C)=O)[C@H]1OC(C)=O; X2 = OC[C@@H]1O[C@H](N*)[C@@H](O)[C@H](O)[C@H]1O; X1 = OC[C@@H]1O[C@H](N*)[C@H](O)[C@H](O)[C@H]1O; Ile(3ξ) = CCC(C)[C@H](N)C(=O)O; Thr(3ξ) = CC(O)[C@H](N)C(=O)O; Suc = O=C(CCC(=O)[*:2])[*:1]

How the values were obtained:
TC1 [1] = assay: Antitumor activity against HPV16 associated TC1 cells xenografted C57BL/6(H2b) mouse
TC1 [2] = assay: Antitumor activity against HPV16 associated TC1 cells xenografted C57BL/6(H2b) mouse at 40 ug; type: functional

`CC[C@H](C)[C@H](NC(=O)[C@@H](NC(=O)[C@@H](N)CO)[C@@H](C)CC)C(=O)N[C@@H](CC(N)=O)C(=O)N[C@@H](Cc1ccccc1)C(=O)N[C@@H](CCC(=O)O)C(=O)N[C@@H](CCCCN)C(=O)N[C@@H](CC(C)C)C(=O)O` was tested, and the Activity (TC1 [1]) was “inactive”.

With `CCC(C)[C@H](NC(=O)[C@H](CC(N)=O)NC(=O)[C@H](Cc1ccc(O)cc1)NC(=O)[C@H](Cc1cnc[nH]1)NC(=O)[C@H](C)NC(=O)[C@H](CCCNC(=N)N)NC(=O)[C@H](CC(=O)O)NC(=O)[C@@H]1CCCN1C(=O)[C@H](CCC(=O)O)NC(=O)[C@H](C)NC(=O)[C@H](CCC(N)=O)NC(=O)CCC(=O)N[C@H]1O[C@@H](CO)[C@H](O)[C@@H](O)[C@H]1O)C(=O)N[C@H](C(=O)N[C@H](C(=O)N[C@@H](Cc1ccccc1)C(=O)N[C@@H](CS)C(=O)N[C@@H](CS)C(=O)N[C@@H](CCCCN)C(=O)N[C@@H](CS)C(=O)N[C@@H](CC(=O)O)C(N)=O)C(C)O)C(C)C` (some centres undefined) ({X1-Suc}-QAEPDRAHYN[Ile(3ξ)]V[Thr(3ξ)]FCCKCD-NH2) the Activity (TC1 [2]) was “inactive”.

`CCC(C)[C@H](NC(=O)[C@H](CC(N)=O)NC(=O)[C@H](Cc1ccc(O)cc1)NC(=O)[C@H](Cc1cnc[nH]1)NC(=O)[C@H](C)NC(=O)[C@H](CCCNC(=N)N)NC(=O)[C@H](CC(=O)O)NC(=O)[C@@H]1CCCN1C(=O)[C@H](CCC(=O)O)NC(=O)[C@H](C)NC(=O)[C@H](CCC(N)=O)NC(=O)CCC(=O)N[C@H]1O[C@@H](CO)[C@H](O)[C@@H](O)[C@@H]1O)C(=O)N[C@H](C(=O)N[C@H](C(=O)N[C@@H](Cc1ccccc1)C(=O)N[C@@H](CS)C(=O)N[C@@H](CS)C(=O)N[C@@H](CCCCN)C(=O)N[C@@H](CS)C(=O)N[C@@H](CC(=O)O)C(N)=O)C(C)O)C(C)C` (some centres undefined) ({X2-Suc}-QAEPDRAHYN[Ile(3ξ)]V[Thr(3ξ)]FCCKCD-NH2) was tested, and the Activity (TC1 [2]) was “inactive”.

For `CCC(C)[C@H](NC(=O)[C@H](CC(N)=O)NC(=O)[C@H](Cc1ccc(O)cc1)NC(=O)[C@H](Cc1cnc[nH]1)NC(=O)[C@H](C)NC(=O)[C@H](CCCNC(=N)N)NC(=O)[C@H](CC(=O)O)NC(=O)[C@@H]1CCCN1C(=O)[C@H](CCC(=O)O)NC(=O)[C@H](C)NC(=O)[C@H](CCC(N)=O)NC(=O)CCC(=O)N[C@H]1O[C@@H](COC(C)=O)[C@H](OC(C)=O)[C@@H](OC(C)=O)[C@H]1OC(C)=O)C(=O)N[C@H](C(=O)N[C@H](C(=O)N[C@@H](Cc1ccccc1)C(=O)N[C@@H](CS)C(=O)N[C@@H](CS)C(=O)N[C@@H](CCCCN)C(=O)N[C@@H](CS)C(=O)N[C@@H](CC(=O)O)C(N)=O)C(C)O)C(C)C` (some centres undefined) ({X3-Suc}-QAEPDRAHYN[Ile(3ξ)]V[Thr(3ξ)]FCCKCD-NH2), the Activity (TC1 [2]) was “inactive”.
